Reference: ChEMBL document CHEMBL4507297, “Data for DCP probe PF-04457845” (2021)

Tests used:
[1] = molecular target: Muscarinic acetylcholine receptor M5 (Homo sapiens) (UniProt P08912); conditions: Compound concentration 10.0 uM
[2] = molecular target: Receptor-type tyrosine-protein kinase FLT3 (Homo sapiens) (UniProt P36888); conditions: Compound concentration 1000.0 nM
[3] = molecular target: Aurora kinase A (Homo sapiens) (UniProt O14965); conditions: Compound concentration 1000.0 nM
[4] = molecular target: Serine/threonine-protein kinase mTOR (Homo sapiens) (UniProt P42345); conditions: Compound concentration 1000.0 nM
[5] = molecular target: Tyrosine-protein kinase JAK1 (Homo sapiens) (UniProt P23458); conditions: Compound concentration 1000.0 nM
[6] = molecular target: Mitogen-activated protein kinase kinase kinase 4 (Homo sapiens) (UniProt Q9Y6R4); conditions: Compound concentration 1000.0 nM
[7] = molecular target: Phosphorylase b kinase gamma catalytic chain, skeletal muscle/heart isoform (Homo sapiens) (UniProt Q16816); conditions: Compound concentration 1000.0 nM
[8] = molecular target: Serine/threonine-protein kinase MARK2 (Homo sapiens) (UniProt Q7KZI7); conditions: Compound concentration 1000.0 nM
[9] = molecular target: Serine/threonine-protein kinase haspin (Homo sapiens) (UniProt Q8TF76); conditions: Compound concentration 1000.0 nM
[10] = molecular target: Uncharacterized serine/threonine-protein kinase SBK3 (Homo sapiens) (UniProt P0C264); conditions: Compound concentration 1000.0 nM
[11] = molecular target: MAP/microtubule affinity-regulating kinase 3 (Homo sapiens) (UniProt P27448); conditions: Compound concentration 1000.0 nM
[12] = molecular target: Vascular endothelial growth factor receptor 3 (Homo sapiens) (UniProt P35916); conditions: Compound concentration 1000.0 nM
[13] = molecular target: Tyrosine-protein kinase Yes (Homo sapiens) (UniProt P07947); conditions: Compound concentration 1000.0 nM
[14] = molecular target: Atypical kinase COQ8A, mitochondrial (Homo sapiens) (UniProt Q8NI60); conditions: Compound concentration 1000.0 nM
[15] = molecular target: Cyclin-dependent kinase 14 (Homo sapiens) (UniProt O94921); conditions: Compound concentration 1000.0 nM
[16] = molecular target: Cyclin-dependent kinase 4 (Homo sapiens) (UniProt P11802); conditions: Compound concentration 1000.0 nM
[17] = molecular target: Tyrosine-protein kinase HCK (Homo sapiens) (UniProt P08631); conditions: Compound concentration 1000.0 nM
[18] = test system: eIF-2-alpha kinase GCN2 (Homo sapiens), Q9P2K8 [S808G]; conditions: Compound concentration 1000.0 nM
[19] = test system: Tyrosine-protein kinase ABL1 (Homo sapiens), P00519 [F317I]; conditions: Compound concentration 1000.0 nM
[20] = molecular target: cAMP-dependent protein kinase catalytic subunit PRKX (Homo sapiens) (UniProt P51817); conditions: Compound concentration 1000.0 nM
[21] = molecular target: Non-receptor tyrosine-protein kinase TYK2 (Homo sapiens) (UniProt P29597); conditions: Compound concentration 1000.0 nM
[22] = molecular target: Proto-oncogene tyrosine-protein kinase Src (Homo sapiens) (UniProt P12931); conditions: Compound concentration 1000.0 nM
[23] = molecular target: Dual specificity mitogen-activated protein kinase kinase 3 (Homo sapiens) (UniProt P46734); conditions: Compound concentration 1000.0 nM
[24] = molecular target: Serine/threonine-protein kinase 36 (Homo sapiens) (UniProt Q9NRP7); conditions: Compound concentration 1000.0 nM
[25] = molecular target: MAP kinase-activated protein kinase 2 (Homo sapiens) (UniProt P49137); conditions: Compound concentration 1000.0 nM
[26] = molecular target: Tyrosine-protein kinase Fgr (Homo sapiens) (UniProt P09769); conditions: Compound concentration 1000.0 nM
[27] = molecular target: Insulin-like growth factor 1 receptor (Homo sapiens) (UniProt P08069); conditions: Compound concentration 1000.0 nM
[28] = test system: Receptor-type tyrosine-protein kinase FLT3 (Homo sapiens), P36888 [D835Y]; conditions: Compound concentration 1000.0 nM
[29] = molecular target: Rhodopsin kinase GRK1 (Homo sapiens) (UniProt Q15835); conditions: Compound concentration 1000.0 nM
[30] = test system: ALK tyrosine kinase receptor (Homo sapiens), Q9UM73 [C1156Y]; conditions: Compound concentration 1000.0 nM
[31] = molecular target: Casein kinase II subunit alpha (Homo sapiens) (UniProt P68400); conditions: Compound concentration 1000.0 nM
[32] = molecular target: AP2-associated protein kinase 1 (Homo sapiens) (UniProt Q2M2I8); conditions: Compound concentration 1000.0 nM
[33] = test system: Leucine-rich repeat serine/threonine-protein kinase 2 (Homo sapiens), Q5S007 [G2019S]; conditions: Compound concentration 1000.0 nM
[34] = molecular target: Mitogen-activated protein kinase 9 (Homo sapiens) (UniProt P45984); conditions: Compound concentration 1000.0 nM
[35] = molecular target: Calcium/calmodulin-dependent protein kinase kinase 2 (Homo sapiens) (UniProt Q96RR4); conditions: Compound concentration 1000.0 nM
[36] = molecular target: Cyclin-dependent kinase 4 (Homo sapiens) (UniProt P11802); conditions: Compound concentration 1000.0 nM; remark: listed apart in the source
[37] = test system: Phosphatidylinositol 4,5-bisphosphate 3-kinase catalytic subunit alpha isoform (Homo sapiens), P42336 [Q546K]; conditions: Compound concentration 1000.0 nM
[38] = molecular target: Cyclin-dependent kinase 4 (Homo sapiens) (UniProt P11802); conditions: Compound concentration 1000.0 nM; remark: listed apart in the source
[39] = molecular target: Ribosomal protein S6 kinase alpha-5 (Homo sapiens) (UniProt O75582); conditions: Compound concentration 1000.0 nM
[40] = molecular target: Serine/threonine-protein kinase VRK2 (Homo sapiens) (UniProt Q86Y07); conditions: Compound concentration 1000.0 nM
[41] = molecular target: Insulin receptor (Homo sapiens) (UniProt P06213); conditions: Compound concentration 1000.0 nM
[42] = molecular target: Serine/threonine-protein kinase PLK3 (Homo sapiens) (UniProt Q9H4B4); conditions: Compound concentration 1000.0 nM
[43] = molecular target: Mitogen-activated protein kinase kinase kinase kinase 3 (Homo sapiens) (UniProt Q8IVH8); conditions: Compound concentration 1000.0 nM
[44] = molecular target: Death-associated protein kinase 1 (Homo sapiens) (UniProt P53355); conditions: Compound concentration 1000.0 nM
[45] = molecular target: Cyclin-dependent kinase 17 (Homo sapiens) (UniProt Q00537); conditions: Compound concentration 1000.0 nM

Cyclin-dependent kinase 4 (Homo sapiens), sequence (P11802 whole entry, canonical isoform): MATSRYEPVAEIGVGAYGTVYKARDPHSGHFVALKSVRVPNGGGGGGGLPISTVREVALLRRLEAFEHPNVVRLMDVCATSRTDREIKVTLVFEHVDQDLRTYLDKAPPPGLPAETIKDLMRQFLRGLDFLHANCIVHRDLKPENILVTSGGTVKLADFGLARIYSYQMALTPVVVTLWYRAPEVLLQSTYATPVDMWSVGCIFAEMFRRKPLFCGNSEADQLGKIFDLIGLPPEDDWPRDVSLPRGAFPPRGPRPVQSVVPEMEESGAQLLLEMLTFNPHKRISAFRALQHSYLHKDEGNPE
Uncharacterized serine/threonine-protein kinase SBK3 (Homo sapiens), sequence (P0C264 whole entry): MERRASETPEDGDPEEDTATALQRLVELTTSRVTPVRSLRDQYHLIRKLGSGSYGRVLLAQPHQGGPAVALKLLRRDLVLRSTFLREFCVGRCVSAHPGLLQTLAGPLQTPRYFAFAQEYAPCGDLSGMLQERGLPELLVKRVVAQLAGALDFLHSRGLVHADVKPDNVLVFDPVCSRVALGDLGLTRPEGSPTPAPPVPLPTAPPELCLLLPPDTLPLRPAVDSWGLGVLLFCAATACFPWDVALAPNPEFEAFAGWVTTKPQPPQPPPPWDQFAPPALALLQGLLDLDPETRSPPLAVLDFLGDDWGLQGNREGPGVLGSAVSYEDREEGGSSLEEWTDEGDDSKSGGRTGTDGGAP
Vascular endothelial growth factor receptor 3 (Homo sapiens), sequence (P35916 whole entry): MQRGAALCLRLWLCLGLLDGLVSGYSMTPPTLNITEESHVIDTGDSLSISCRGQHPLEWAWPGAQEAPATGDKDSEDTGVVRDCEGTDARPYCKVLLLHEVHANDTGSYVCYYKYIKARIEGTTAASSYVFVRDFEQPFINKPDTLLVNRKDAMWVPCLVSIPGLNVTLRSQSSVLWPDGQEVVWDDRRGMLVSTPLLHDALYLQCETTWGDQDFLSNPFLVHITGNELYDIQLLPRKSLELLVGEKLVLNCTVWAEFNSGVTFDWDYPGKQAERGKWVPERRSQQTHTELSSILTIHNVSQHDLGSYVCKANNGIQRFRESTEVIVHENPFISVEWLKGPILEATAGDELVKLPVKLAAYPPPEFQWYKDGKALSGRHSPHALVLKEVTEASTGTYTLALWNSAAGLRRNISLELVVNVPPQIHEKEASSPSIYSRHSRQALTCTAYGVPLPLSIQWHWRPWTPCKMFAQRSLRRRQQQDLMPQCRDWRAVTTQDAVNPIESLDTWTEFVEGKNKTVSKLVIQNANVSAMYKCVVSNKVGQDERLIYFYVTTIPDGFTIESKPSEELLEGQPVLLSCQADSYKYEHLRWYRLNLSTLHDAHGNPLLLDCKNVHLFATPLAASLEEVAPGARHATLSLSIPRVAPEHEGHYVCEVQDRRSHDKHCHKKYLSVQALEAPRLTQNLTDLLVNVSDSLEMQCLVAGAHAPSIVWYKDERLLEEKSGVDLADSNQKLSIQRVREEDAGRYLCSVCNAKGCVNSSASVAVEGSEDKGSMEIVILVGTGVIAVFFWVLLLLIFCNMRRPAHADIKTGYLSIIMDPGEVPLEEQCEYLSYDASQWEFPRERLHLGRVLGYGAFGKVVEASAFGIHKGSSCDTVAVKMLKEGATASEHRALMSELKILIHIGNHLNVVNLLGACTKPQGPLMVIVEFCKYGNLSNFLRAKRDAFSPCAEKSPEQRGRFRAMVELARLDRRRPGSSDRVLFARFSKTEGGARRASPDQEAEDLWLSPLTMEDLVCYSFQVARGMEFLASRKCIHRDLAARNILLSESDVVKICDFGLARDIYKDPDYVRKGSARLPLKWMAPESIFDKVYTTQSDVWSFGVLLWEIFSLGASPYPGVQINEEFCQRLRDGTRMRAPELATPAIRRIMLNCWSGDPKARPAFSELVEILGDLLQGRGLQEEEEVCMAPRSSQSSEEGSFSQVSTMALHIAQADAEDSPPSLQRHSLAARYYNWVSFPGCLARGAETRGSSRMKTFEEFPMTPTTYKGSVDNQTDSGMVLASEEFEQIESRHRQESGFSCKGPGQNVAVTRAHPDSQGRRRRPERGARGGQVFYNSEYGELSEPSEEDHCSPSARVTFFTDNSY
MAP/microtubule affinity-regulating kinase 3 (Homo sapiens), sequence (P27448 whole entry, looked up): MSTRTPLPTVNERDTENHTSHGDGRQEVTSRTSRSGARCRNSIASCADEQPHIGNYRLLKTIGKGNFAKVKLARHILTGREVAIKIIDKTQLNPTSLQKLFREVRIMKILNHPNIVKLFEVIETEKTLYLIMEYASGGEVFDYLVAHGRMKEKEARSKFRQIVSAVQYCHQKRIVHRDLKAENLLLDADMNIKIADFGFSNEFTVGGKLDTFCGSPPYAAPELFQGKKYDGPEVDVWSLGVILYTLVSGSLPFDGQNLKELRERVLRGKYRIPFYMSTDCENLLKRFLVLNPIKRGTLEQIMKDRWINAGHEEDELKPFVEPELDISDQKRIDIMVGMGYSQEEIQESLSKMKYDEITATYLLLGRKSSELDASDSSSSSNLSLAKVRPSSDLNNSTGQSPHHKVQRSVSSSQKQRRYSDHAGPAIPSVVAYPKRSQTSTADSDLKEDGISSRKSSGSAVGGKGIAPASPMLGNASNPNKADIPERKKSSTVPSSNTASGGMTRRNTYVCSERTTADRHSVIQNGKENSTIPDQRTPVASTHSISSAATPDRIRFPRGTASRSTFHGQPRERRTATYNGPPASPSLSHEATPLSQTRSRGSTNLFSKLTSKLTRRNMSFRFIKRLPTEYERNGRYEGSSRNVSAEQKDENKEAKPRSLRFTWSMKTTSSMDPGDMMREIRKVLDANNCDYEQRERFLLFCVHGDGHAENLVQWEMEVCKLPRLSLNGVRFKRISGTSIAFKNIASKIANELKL
Dual specificity mitogen-activated protein kinase kinase 3 (Homo sapiens), sequence (P46734 whole entry): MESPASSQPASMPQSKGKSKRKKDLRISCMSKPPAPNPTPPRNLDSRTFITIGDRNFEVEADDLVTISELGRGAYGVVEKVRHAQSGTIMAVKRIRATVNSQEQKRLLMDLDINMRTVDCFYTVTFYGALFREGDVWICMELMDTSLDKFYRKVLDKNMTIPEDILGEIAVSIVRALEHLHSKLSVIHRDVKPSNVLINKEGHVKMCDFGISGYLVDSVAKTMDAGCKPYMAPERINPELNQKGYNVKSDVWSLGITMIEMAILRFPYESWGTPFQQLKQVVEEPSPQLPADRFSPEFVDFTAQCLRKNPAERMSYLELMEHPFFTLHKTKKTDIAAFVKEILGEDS
Calcium/calmodulin-dependent protein kinase kinase 2 (Homo sapiens), sequence (Q96RR4 2-588 limits assumed): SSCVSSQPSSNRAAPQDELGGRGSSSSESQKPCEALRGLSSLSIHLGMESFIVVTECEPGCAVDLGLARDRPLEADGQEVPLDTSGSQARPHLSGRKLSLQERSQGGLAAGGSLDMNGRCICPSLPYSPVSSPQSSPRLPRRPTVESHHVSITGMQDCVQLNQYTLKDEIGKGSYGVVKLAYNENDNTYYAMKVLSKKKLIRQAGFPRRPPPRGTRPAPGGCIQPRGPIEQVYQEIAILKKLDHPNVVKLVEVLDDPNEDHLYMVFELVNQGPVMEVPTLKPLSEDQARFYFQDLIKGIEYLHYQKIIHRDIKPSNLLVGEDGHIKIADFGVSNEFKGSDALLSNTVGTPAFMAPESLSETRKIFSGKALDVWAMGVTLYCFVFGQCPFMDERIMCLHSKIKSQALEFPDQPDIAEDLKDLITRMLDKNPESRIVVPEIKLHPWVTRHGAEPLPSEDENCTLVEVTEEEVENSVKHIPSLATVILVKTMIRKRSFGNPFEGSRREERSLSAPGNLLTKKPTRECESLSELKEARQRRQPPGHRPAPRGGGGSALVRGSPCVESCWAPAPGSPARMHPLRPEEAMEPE
Serine/threonine-protein kinase VRK2 (Homo sapiens), sequence (Q86Y07 whole entry): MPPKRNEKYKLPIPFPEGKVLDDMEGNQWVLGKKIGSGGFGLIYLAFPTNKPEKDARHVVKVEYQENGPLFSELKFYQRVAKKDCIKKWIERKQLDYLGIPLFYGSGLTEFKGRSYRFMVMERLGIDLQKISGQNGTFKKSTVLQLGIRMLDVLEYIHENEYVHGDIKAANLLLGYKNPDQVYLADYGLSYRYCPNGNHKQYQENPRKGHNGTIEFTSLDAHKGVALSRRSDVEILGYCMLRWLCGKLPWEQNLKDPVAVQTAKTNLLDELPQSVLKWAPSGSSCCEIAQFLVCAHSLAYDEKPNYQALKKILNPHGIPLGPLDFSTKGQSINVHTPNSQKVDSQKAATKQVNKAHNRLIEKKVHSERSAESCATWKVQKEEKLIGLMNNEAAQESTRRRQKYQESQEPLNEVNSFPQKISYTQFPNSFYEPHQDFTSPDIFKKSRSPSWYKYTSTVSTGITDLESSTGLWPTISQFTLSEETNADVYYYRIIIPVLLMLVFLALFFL
Tyrosine-protein kinase HCK (Homo sapiens), sequence (P08631 2-526 limits assumed): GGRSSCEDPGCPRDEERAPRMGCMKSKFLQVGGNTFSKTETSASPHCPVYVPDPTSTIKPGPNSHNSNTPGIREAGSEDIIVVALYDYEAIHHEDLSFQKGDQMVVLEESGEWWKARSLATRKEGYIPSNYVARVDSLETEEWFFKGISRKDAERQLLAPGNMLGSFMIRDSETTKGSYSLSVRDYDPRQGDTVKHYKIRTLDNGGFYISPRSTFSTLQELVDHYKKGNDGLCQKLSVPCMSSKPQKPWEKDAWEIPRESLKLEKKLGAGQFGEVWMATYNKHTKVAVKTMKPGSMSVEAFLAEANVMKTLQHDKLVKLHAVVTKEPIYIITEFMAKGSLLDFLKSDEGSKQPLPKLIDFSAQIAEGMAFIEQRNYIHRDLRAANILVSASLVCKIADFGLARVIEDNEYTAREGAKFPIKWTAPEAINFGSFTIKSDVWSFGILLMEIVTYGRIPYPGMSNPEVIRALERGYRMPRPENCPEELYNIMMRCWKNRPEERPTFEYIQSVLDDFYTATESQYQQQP

O=C(Nc1cccnn1)N1CCC(=Cc2cccc(Oc3ccc(C(F)(F)F)cn3)c2)CC1
inhibition [1]: 23.5%
residual activity [2]: 100%
residual activity [3]: 100%
residual activity [4]: 87%
residual activity [5]: 97%
residual activity [6]: 100%
residual activity [7]: 100%
residual activity [8]: 100%
residual activity [9]: 100%
residual activity [10]: 100%
residual activity [11]: 89%
residual activity [12]: 80%
residual activity [13]: 100%
residual activity [14]: 78%
residual activity [15]: 89%
residual activity [16]: 100%
residual activity [17]: 98%
residual activity [18]: 87%
residual activity [19]: 100%
residual activity [20]: 87%
residual activity [21]: 100%
residual activity [22]: 88%
residual activity [23]: 100%
residual activity [24]: 100%
residual activity [25]: 87%
residual activity [26]: 63%
residual activity [27]: 87%
residual activity [28]: 100%
residual activity [29]: 89%
residual activity [30]: 100%
residual activity [31]: 100%
residual activity [32]: 74%
residual activity [33]: 100%
residual activity [34]: 100%
residual activity [35]: 73%
residual activity [36]: 100%
residual activity [37]: 45%
residual activity [38]: 96%
residual activity [39]: 71%
residual activity [40]: 100%
residual activity [41]: 100%
residual activity [42]: 100%
residual activity [43]: 100%
residual activity [44]: 100%
residual activity [45]: 100%

O=C(Nc1cccnn1)N1CC(C/C=C/c2cncc(Oc3ccc(C(F)(F)F)cn3)n2)C1
inhibition [1]: -0.59%
residual activity [2]: 100%
residual activity [3]: 100%
residual activity [4]: 100%
residual activity [5]: 100%
residual activity [6]: 100%
residual activity [7]: 100%
residual activity [8]: 80%
residual activity [9]: 79%
residual activity [10]: 100%
residual activity [11]: 100%
residual activity [12]: 100%
residual activity [13]: 100%
residual activity [14]: 96%
residual activity [15]: 100%
residual activity [16]: 75%
residual activity [17]: 100%
residual activity [18]: 97%
residual activity [19]: 53%
residual activity [20]: 92%
residual activity [21]: 79%
residual activity [22]: 100%
residual activity [23]: 72%
residual activity [24]: 100%
residual activity [25]: 100%
residual activity [26]: 100%
residual activity [27]: 100%
residual activity [28]: 100%
residual activity [29]: 82%
residual activity [30]: 81%
residual activity [31]: 72%
residual activity [32]: 100%
residual activity [33]: 100%
residual activity [34]: 72%
residual activity [35]: 100%
residual activity [36]: 86%
residual activity [37]: 92%
residual activity [38]: 94%
residual activity [39]: 100%
residual activity [40]: 97%
residual activity [41]: 100%
residual activity [42]: 80%
residual activity [43]: 100%
residual activity [44]: 98%
residual activity [45]: 100%
